Results: PubChem BioAssay (NCI)
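Where inhibition never reached the appropriate level, the endpoint shown equals the highest concentration tested. Otherwise, values were interpolated linearly from a five-concentration, 48-hour dose response in 96-well plates. GI50 = concentration required for 50% inhibition of growth. TGI: total growth inhibition.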

Tests used:
Assay in all cases: NCI anticancer screen, dose series, 48 h
UO-31 renal = test system: UO-31 renal
SK-MEL-28 melanoma = test system: SK-MEL-28 melanoma
ACHN renal = test system: ACHN renal
SK-OV-3 ovarian = test system: SK-OV-3 ovarian
NCI-H226 lung = test system: NCI-H226 lung
HS 578T breast = test system: HS 578T breast
SF-268 CNS = test system: SF-268 CNS
OVCAR-5 ovarian = test system: OVCAR-5 ovarian
MDA-MB-435 = test system: MDA-MB-435
SNB-75 CNS = test system: SNB-75 CNS
SK-MEL-5 melanoma = test system: SK-MEL-5 melanoma
HCT-15 colon = test system: HCT-15 colon
HOP-92 NSCLC = test system: HOP-92 NSCLC
SF-539 CNS = test system: SF-539 CNS
CAKI-1 renal = test system: CAKI-1 renal
NCI-H522 lung = test system: NCI-H522 lung
PC-3 prostate = test system: PC-3 prostate
MDA-MB-231 breast = test system: MDA-MB-231 breast
M14 melanoma = test system: M14 melanoma
K-562 leukemia = test system: K-562 leukemia
UACC-62 melanoma = test system: UACC-62 melanoma
TK-10 renal = test system: TK-10 renal
SK-MEL-2 melanoma = test system: SK-MEL-2 melanoma
SNB-19 CNS = test system: SNB-19 CNS
HOP-62 NSCLC = test system: HOP-62 NSCLC
RPMI-8226 leukemia = test system: RPMI-8226 leukemia
T-47D breast = test system: T-47D breast
A549 NSCLC = test system: A549 NSCLC
NCI-H460 lung = test system: NCI-H460 lung
SR leukemia = test system: SR leukemia
786-0 renal = test system: 786-0 renal
SW-620 colon = test system: SW-620 colon
IGROV1 ovarian = test system: IGROV1 ovarian
BT-549 breast = test system: BT-549 breast
U251 CNS = test system: U251 CNS
UACC-257 melanoma = test system: UACC-257 melanoma
SN12C renal = test system: SN12C renal
EKVX NSCLC = test system: EKVX NSCLC
HCC-2998 colon = test system: HCC-2998 colon
OVCAR-8 ovarian = test system: OVCAR-8 ovarian
MOLT-4 leukemia = test system: MOLT-4 leukemia
DU-145 prostate = test system: DU-145 prostate
HT29 colon = test system: HT29 colon
COLO 205 colon = test system: COLO 205 colon
CCRF-CEM leukemia = test system: CCRF-CEM leukemia
MALME-3M melanoma = test system: MALME-3M melanoma
MCF7 breast = test system: MCF7 breast
NCI/ADR-RES ovarian = test system: NCI/ADR-RES ovarian
HL-60(TB) leukemia = test system: HL-60(TB) leukemia
OVCAR-4 ovarian = test system: OVCAR-4 ovarian
NCI-H23 lung = test system: NCI-H23 lung
A498 renal = test system: A498 renal
SF-295 CNS = test system: SF-295 CNS
HCT-116 colon = test system: HCT-116 colon
LOX IMVI melanoma = test system: LOX IMVI melanoma
KM12 colon = test system: KM12 colon

Structure (SMILES): N=C(N)c1ccc(-c2ccc(-c3ccc(Cl)cc3Cl)o2)cc1
- GI50 (UO-31 renal): 1.67 µM
- TGI (UO-31 renal): 3.18 µM
- GI50 (SK-MEL-28 melanoma): 1.61 µM
- TGI (SK-MEL-28 melanoma): 3.03 µM
- GI50 (ACHN renal): 1.68 µM
- TGI (ACHN renal): 3.06 µM
- GI50 (SK-OV-3 ovarian): 1.62 µM
- TGI (SK-OV-3 ovarian): 3.23 µM
- GI50 (NCI-H226 lung): 1.82 µM
- TGI (NCI-H226 lung): 4.28 µM
- GI50 (HS 578T breast): 2.13 µM
- TGI (HS 578T breast): 4.99 µM
- GI50 (SF-268 CNS): 2.03 µM
- TGI (SF-268 CNS): 4.65 µM
- GI50 (OVCAR-5 ovarian): 1.53 µM
- TGI (OVCAR-5 ovarian): 2.95 µM
- GI50 (MDA-MB-435): 1.7 µM
- TGI (MDA-MB-435): 3.09 µM
- GI50 (SNB-75 CNS): 1.4 µM
- TGI (SNB-75 CNS): 2.73 µM
- GI50 (SK-MEL-5 melanoma): 1.74 µM
- TGI (SK-MEL-5 melanoma): 3.13 µM

Structure (SMILES): COc1ccc2nc(-c3ccccc3)cc(Nc3cccc(/C(C)=N\O)c3)c2c1
- GI50 (HCT-15 colon): 29.8 µM
- TGI (HCT-15 colon): > 100 µM
- GI50 (UO-31 renal): 9.66 µM
- TGI (UO-31 renal): > 100 µM
- GI50 (HOP-92 NSCLC): 1.93 µM
- TGI (HOP-92 NSCLC): 5.66 µM
- GI50 (SK-MEL-28 melanoma): 57.7 µM
- TGI (SK-MEL-28 melanoma): > 100 µM
- GI50 (SF-539 CNS): 6.61 µM
- TGI (SF-539 CNS): 24.8 µM
- GI50 (CAKI-1 renal): 3.23 µM
- TGI (CAKI-1 renal): 12.9 µM
- GI50 (NCI-H522 lung): 73.9 µM
- TGI (NCI-H522 lung): > 100 µM
- GI50 (PC-3 prostate): 4.72 µM
- TGI (PC-3 prostate): 26.3 µM
- GI50 (MDA-MB-231 breast): 2.54 µM
- TGI (MDA-MB-231 breast): 7.62 µM
- GI50 (M14 melanoma): 5.04 µM
- TGI (M14 melanoma): > 100 µM
- GI50 (ACHN renal): 7.29 µM
- TGI (ACHN renal): > 100 µM
- GI50 (K-562 leukemia): 4.12 µM
- TGI (K-562 leukemia): > 100 µM
- GI50 (UACC-62 melanoma): 5.42 µM
- TGI (UACC-62 melanoma): 30.5 µM
- GI50 (TK-10 renal): 2.56 µM
- TGI (TK-10 renal): 9.69 µM
- GI50 (SK-MEL-2 melanoma): 55.7 µM
- TGI (SK-MEL-2 melanoma): > 100 µM
- GI50 (SNB-19 CNS): 32.9 µM
- TGI (SNB-19 CNS): > 100 µM
- GI50 (HOP-62 NSCLC): 1.84 µM
- TGI (HOP-62 NSCLC): 4.27 µM
- GI50 (RPMI-8226 leukemia): 4.89 µM
- TGI (RPMI-8226 leukemia): > 100 µM
- GI50 (T-47D breast): 4.01 µM
- TGI (T-47D breast): > 100 µM
- GI50 (A549 NSCLC): 4.67 µM
- TGI (A549 NSCLC): > 100 µM
- GI50 (SK-OV-3 ovarian): 6.65 µM
- TGI (SK-OV-3 ovarian): 80.6 µM
- GI50 (NCI-H460 lung): 6.84 µM
- TGI (NCI-H460 lung): > 100 µM
- GI50 (NCI-H226 lung): 3.18 µM
- TGI (NCI-H226 lung): 11.1 µM
- GI50 (HS 578T breast): 9.05 µM
- TGI (HS 578T breast): 79.2 µM
- GI50 (SR leukemia): 3.36 µM
- TGI (SR leukemia): > 100 µM
- GI50 (786-0 renal): 2.09 µM
- TGI (786-0 renal): 5.15 µM
- GI50 (SF-268 CNS): 3.34 µM
- TGI (SF-268 CNS): 9.06 µM
- GI50 (SW-620 colon): 19.4 µM
- TGI (SW-620 colon): > 100 µM
- GI50 (IGROV1 ovarian): 24.4 µM
- TGI (IGROV1 ovarian): > 100 µM
- GI50 (BT-549 breast): 32.8 µM
- TGI (BT-549 breast): > 100 µM
- GI50 (OVCAR-5 ovarian): 33.7 µM
- TGI (OVCAR-5 ovarian): > 100 µM
- GI50 (U251 CNS): 6.05 µM
- TGI (U251 CNS): 48.5 µM
- GI50 (UACC-257 melanoma): 19.4 µM
- TGI (UACC-257 melanoma): > 100 µM
- GI50 (SN12C renal): 6.05 µM
- TGI (SN12C renal): 35.4 µM
- GI50 (EKVX NSCLC): 19.2 µM
- TGI (EKVX NSCLC): 86.9 µM
- GI50 (HCC-2998 colon): 46.2 µM
- TGI (HCC-2998 colon): > 100 µM
- GI50 (OVCAR-8 ovarian): 3 µM
- TGI (OVCAR-8 ovarian): > 100 µM
- GI50 (MOLT-4 leukemia): 6.18 µM
- TGI (MOLT-4 leukemia): > 100 µM
- GI50 (DU-145 prostate): 6.46 µM
- TGI (DU-145 prostate): 31.9 µM
- GI50 (MDA-MB-435): 2.5 µM
- TGI (MDA-MB-435): 7.96 µM
- GI50 (HT29 colon): 28.2 µM
- TGI (HT29 colon): > 100 µM
- GI50 (COLO 205 colon): 21.4 µM
- TGI (COLO 205 colon): > 100 µM
- GI50 (CCRF-CEM leukemia): 58.7 µM
- TGI (CCRF-CEM leukemia): > 100 µM
- GI50 (SNB-75 CNS): 4.49 µM
- TGI (SNB-75 CNS): > 100 µM
- GI50 (MALME-3M melanoma): 4.29 µM
- TGI (MALME-3M melanoma): 20.2 µM
- GI50 (MCF7 breast): 16.8 µM
- TGI (MCF7 breast): > 100 µM
- GI50 (NCI/ADR-RES ovarian): 6.35 µM
- TGI (NCI/ADR-RES ovarian): > 100 µM
- GI50 (HL-60(TB) leukemia): > 100 µM
- TGI (HL-60(TB) leukemia): > 100 µM
- GI50 (OVCAR-4 ovarian): 5.65 µM
- TGI (OVCAR-4 ovarian): > 100 µM
- GI50 (SK-MEL-5 melanoma): 13.2 µM
- TGI (SK-MEL-5 melanoma): 41 µM
- GI50 (NCI-H23 lung): 22.4 µM
- TGI (NCI-H23 lung): > 100 µM
- GI50 (A498 renal): 11.8 µM
- TGI (A498 renal): 37.3 µM
- GI50 (SF-295 CNS): 2.05 µM
- TGI (SF-295 CNS): 5.13 µM
- GI50 (HCT-116 colon): 2.58 µM
- TGI (HCT-116 colon): > 100 µM

Structure (SMILES): COc1ccc(-n2nnc3c(sc4ccccc43)c2=O)cc1
- GI50 (HCT-15 colon): > 100 µM
- TGI (HCT-15 colon): > 100 µM
- GI50 (SK-MEL-28 melanoma): > 100 µM
- TGI (SK-MEL-28 melanoma): > 100 µM
- GI50 (NCI-H522 lung): > 100 µM
- TGI (NCI-H522 lung): > 100 µM
- GI50 (PC-3 prostate): > 100 µM
- TGI (PC-3 prostate): > 100 µM
- GI50 (M14 melanoma): > 100 µM
- TGI (M14 melanoma): > 100 µM
- GI50 (K-562 leukemia): > 100 µM
- TGI (K-562 leukemia): > 100 µM
- GI50 (UACC-62 melanoma): > 100 µM
- TGI (UACC-62 melanoma): > 100 µM
- GI50 (SK-MEL-2 melanoma): > 100 µM
- TGI (SK-MEL-2 melanoma): > 100 µM
- GI50 (RPMI-8226 leukemia): > 100 µM
- TGI (RPMI-8226 leukemia): > 100 µM
- GI50 (786-0 renal): 3.61 µM
- TGI (786-0 renal): > 100 µM
- GI50 (SF-268 CNS): > 100 µM
- TGI (SF-268 CNS): > 100 µM
- GI50 (LOX IMVI melanoma): > 100 µM
- TGI (LOX IMVI melanoma): > 100 µM
- GI50 (SW-620 colon): > 100 µM
- TGI (SW-620 colon): > 100 µM
- GI50 (BT-549 breast): > 100 µM
- TGI (BT-549 breast): > 100 µM
- GI50 (KM12 colon): > 100 µM
- TGI (KM12 colon): > 100 µM
- GI50 (UACC-257 melanoma): > 100 µM
- TGI (UACC-257 melanoma): > 100 µM
- GI50 (HCC-2998 colon): > 100 µM
- TGI (HCC-2998 colon): > 100 µM
- GI50 (MOLT-4 leukemia): > 100 µM
- TGI (MOLT-4 leukemia): > 100 µM
- GI50 (DU-145 prostate): > 100 µM
- TGI (DU-145 prostate): > 100 µM
- GI50 (MDA-MB-435): > 100 µM
- TGI (MDA-MB-435): > 100 µM
- GI50 (COLO 205 colon): > 100 µM
- TGI (COLO 205 colon): > 100 µM
- GI50 (MCF7 breast): > 100 µM
- TGI (MCF7 breast): > 100 µM
- GI50 (NCI/ADR-RES ovarian): > 100 µM
- TGI (NCI/ADR-RES ovarian): > 100 µM
- GI50 (HL-60(TB) leukemia): > 100 µM
- TGI (HL-60(TB) leukemia): > 100 µM
- GI50 (SK-MEL-5 melanoma): > 100 µM
- TGI (SK-MEL-5 melanoma): > 100 µM
- GI50 (NCI-H23 lung): > 100 µM
- TGI (NCI-H23 lung): > 100 µM
